Reference: EP4603105A1, “PHARMACEUTICAL COMPOSITION CONTAINING CYCLIC COMPOUND HAVING SELECTIVE KRAS INHIBITORY EFFECT AGAINST HRAS AND NRAS” (CHUGAI SEIYAKU KABUSHIKI KAISHA, priority 2022, dated 2024)

Key:
[1] = target: GDP-bound NRAS wild-type protein (Homo sapiens, UniProt P01111); assay: Binding to NRAS by surface plasmon resonance (SPR), KD and KD ratio to KRAS; conditions: ratio of KD for GDP-bound NRAS wild-type protein to KD for KRAS
In short: (§1)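 SPR, 30°C: Avi-biotin RAS·GDP captured via Biotin CAPture (~100–300 RU); running buffer HBS pH 7.4, 1 mM DTT, 10 mM MgCl2, 0.01% Tween 20, 10 µM GDP, 4% DMSO. Single-cycle kinetics, 100 µL/min, 75 s injections; 1:1 model → KD.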

[2] = target: HRAS wild-type protein (Homo sapiens, UniProt P01112); assay: Binding to HRAS by surface plasmon resonance (SPR), KD and KD ratio to KRAS; conditions: ratio of KD for HRAS wild-type protein to KD for KRAS
HRAS wild-type protein, sequence (P01112 whole entry): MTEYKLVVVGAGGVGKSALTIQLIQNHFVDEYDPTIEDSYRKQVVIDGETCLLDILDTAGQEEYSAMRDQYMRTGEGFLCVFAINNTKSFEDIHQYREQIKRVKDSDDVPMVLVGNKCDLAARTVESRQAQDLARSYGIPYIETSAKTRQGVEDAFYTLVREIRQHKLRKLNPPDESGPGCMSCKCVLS
In short: as §1

[3] = system: human lung cancer strain NCI-H441; type: cell-based
In short: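 Proliferation was scored by […] measured after the reagent was added to cultures kept at 37°C in 5% carbon dioxide.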

GDP-bound NRAS wild-type protein, sequence (P01111 whole entry): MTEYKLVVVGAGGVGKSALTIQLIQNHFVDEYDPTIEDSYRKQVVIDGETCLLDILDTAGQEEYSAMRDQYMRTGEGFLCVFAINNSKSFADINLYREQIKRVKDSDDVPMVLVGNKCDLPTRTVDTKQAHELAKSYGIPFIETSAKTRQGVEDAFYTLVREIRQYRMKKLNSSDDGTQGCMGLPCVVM

| Structure (SMILES) | NRAS /KRAS [1] | HRAS /KRAS [2] | IC50 [3] |
| --- | --- | --- | --- |
| CCC[C@H]1C(=O)N[C@@H]([C@@H](C)CC)C(=O)N(C)CC(=O)N(C)[C@H]2C/C=C\CCN(C2=O)[C@@H](Cc2ccc(C(F)(F)F)cc2)C(=O)N(C)CC(=O)N[C@@H](CCc2ccc(C(F)(F)F)c(Cl)c2)C(=O)N2CC3(CC3)C[C@H]2C(=O)NC2(CC(C)(C)C2)C(=O)N(C)[C@@H]([C@@H](C)CC)C(=O)N(C)[C@H](C(=O)N(C)C)CC(=O)N1C [PP2983] | AA (a compound having 20 or more is denoted as AA) | A (a compound having 10 or more and less than 20 is denoted as A) | 0.0187 µM |
| CCC[C@H]1C(=O)N[C@@H](C2CCCC2)C(=O)N(C)CC(=O)N(C)[C@H]2C/C=C\CCN(C2=O)[C@@H](Cc2ccc(C(F)(F)F)cc2)C(=O)N(C)CC(=O)N[C@@H](CCc2ccc(C(F)(F)F)c(Cl)c2)C(=O)N2C[C@H](OCC)C[C@H]2C(=O)NC2(CC(C)(C)C2)C(=O)N(C)[C@@H](C2CCCC2)C(=O)N(C)[C@H](C(=O)N(C)C)CC(=O)N1C [PP2984] | A (a compound having 10 or more and less than 20 is denoted as A) | B (a compound having 3 or more and less than 10 is denoted as B) | 0.0096 µM |
| CCC[C@H]1C(=O)N[C@@H](C2CCCC2)C(=O)N(C)CC(=O)N(C)[C@H]2C/C=C\CCN(C2=O)[C@@H](Cc2ccc(C(F)(F)F)cc2)C(=O)N(C)CC(=O)N[C@@H](CCc2ccc(C(F)(F)F)c(Cl)c2)C(=O)N2CC3(CC3)C[C@H]2C(=O)NC2(CC(C)(C)C2)C(=O)N(C)[C@@H](C2CCCC2)C(=O)N(C)[C@H](C(=O)N(C)C)CC(=O)N1C [PP2986] | AA (a compound having 20 or more is denoted as AA) | A (a compound having 10 or more and less than 20 is denoted as A) | 0.0251 µM |
| CCC[C@H]1C(=O)N[C@@H]([C@@H](C)CC)C(=O)N(C)CC(=O)N(C)[C@H]2C/C=C\CCN(C2=O)[C@@H](Cc2ccc(C(F)(F)F)cc2)C(=O)N(C)CC(=O)N[C@@H](CCc2ccc(C(F)(F)F)c(Cl)c2)C(=O)N2CC3(CC3)C[C@H]2C(=O)NC2(CC(C)(C)C2)C(=O)N(C)[C@@H](CC(C)C)C(=O)N(C)[C@H](C(=O)N(C)C)CC(=O)N1C [PP2987] | AA (a compound having 20 or more is denoted as AA) | A (a compound having 10 or more and less than 20 is denoted as A) | 0.0317 µM |
| CCC[C@H]1C(=O)N[C@@H](C2CCCC2)C(=O)N(C)CC(=O)N(C)[C@H]2C/C=C\CCN(C2=O)[C@@H](Cc2ccc(C)cc2)C(=O)N(C)CC(=O)N[C@@H](CCc2cc(F)c(C(F)(F)F)c(F)c2)C(=O)N2C[C@H](OCC)C[C@H]2C(=O)NC2(CC(C)(C)C2)C(=O)N(C)[C@@H](CC(C)(C)C)C(=O)N(C)[C@H](C(=O)N(C)C)CC(=O)N1C [PP2989] | AA (a compound having 20 or more is denoted as AA) | A (a compound having 10 or more and less than 20 is denoted as A) | 0.0065 µM |
| CCC[C@H]1C(=O)N[C@@H](C2CCCC2)C(=O)N(C)CC(=O)N(C)[C@H]2C/C=C\CCN(C2=O)[C@@H](Cc2ccc(C)cc2)C(=O)N(C)CC(=O)N[C@@H](CCc2cc(F)c(C(F)(F)F)c(F)c2)C(=O)N2CC3(CC3)C[C@H]2C(=O)NC2(CC(C)(C)C2)C(=O)N(C)[C@@H](C2CCCC2)C(=O)N(C)[C@H](C(=O)N(C)C)CC(=O)N1C [PP2990] | A (a compound having 10 or more and less than 20 is denoted as A) | A (a compound having 10 or more and less than 20 is denoted as A) | 0.0089 µM |
| CCC[C@H]1C(=O)N[C@@H](C2CCCC2)C(=O)N(C)CC(=O)N(C)[C@H]2C/C=C\CCN(C2=O)[C@@H](Cc2ccc(C)cc2)C(=O)N(C)CC(=O)N[C@@H](CCc2ccc(C(F)(F)F)c(OC)c2)C(=O)N2C[C@H](OCC)C[C@H]2C(=O)NC2(CC(C)(C)C2)C(=O)N(C)[C@@H](C2CCCC2)C(=O)N(C)[C@H](C(=O)N(C)C)CC(=O)N1C [PP2992] | AA (a compound having 20 or more is denoted as AA) | A (a compound having 10 or more and less than 20 is denoted as A) | 0.0075 µM |
| CCC[C@H]1C(=O)N[C@@H]([C@@H](C)CC)C(=O)N(C)CC(=O)N(C)[C@H]2C/C=C\CCN(C2=O)[C@@H](Cc2ccc(C)cc2)C(=O)N(C)CC(=O)N[C@@H](CCc2cc(F)c(C(F)(F)F)c(F)c2)C(=O)N2C[C@H](OCC)C[C@H]2C(=O)NC2(CC(C)(C)C2)C(=O)N(C)[C@@H](CC(F)(F)F)C(=O)N(C)[C@H](C(=O)N(C)C)CC(=O)N1C [PP2993] | A (a compound having 10 or more and less than 20 is denoted as A) | A (a compound having 10 or more and less than 20 is denoted as A) | 0.0141 µM |
| CCC[C@H]1C(=O)N[C@@H](C2CCCCC2)C(=O)N(C)CC(=O)N(C)[C@H]2C/C=C\CCN(C2=O)[C@@H](Cc2ccc(C(F)(F)F)cc2)C(=O)N(C)CC(=O)N[C@@H](CCc2ccc(C(F)(F)F)c(Cl)c2)C(=O)N2C[C@H](OCC)C[C@H]2C(=O)NC2(CC(C)(C)C2)C(=O)N(C)[C@@H](C2CCCC2)C(=O)N(C)[C@H](C(=O)N(C)C)CC(=O)N1C [PP2996] | AA (a compound having 20 or more is denoted as AA) | A (a compound having 10 or more and less than 20 is denoted as A) | 0.0137 µM |
| CCC[C@H]1C(=O)N[C@@H]([C@@H](C)CC)C(=O)N(C)CC(=O)N(C)[C@H]2C/C=C\CCN(C2=O)[C@@H](Cc2ccc(C)cc2)C(=O)N(C)CC(=O)N[C@@H](CCc2cc(F)c(C(F)(F)F)c(F)c2)C(=O)N2CC3(CC3)C[C@H]2C(=O)NC2(CC(C)(C)C2)C(=O)N(C)[C@@H](CC(C)(C)C)C(=O)N(C)[C@H](C(=O)N(C)C)CC(=O)N1C [PP2997] | A (a compound having 10 or more and less than 20 is denoted as A) | B (a compound having 3 or more and less than 10 is denoted as B) | 0.0041 µM |
| CCC[C@H]1C(=O)N[C@@H](C2CCCC2)C(=O)N(C)CC(=O)N(C)[C@H]2C/C=C\CCN(C2=O)[C@@H](Cc2ccc(C)cc2)C(=O)N(C)CC(=O)N[C@@H](CCc2cc(F)c(C(F)(F)F)c(F)c2)C(=O)N2CC3(CC3)C[C@H]2C(=O)NC2(CC(C)(C)C2)C(=O)N(C)[C@@H](CC(C)(C)C)C(=O)N(C)[C@H](C(=O)N(C)C)CC(=O)N1C [PP2999] | AA (a compound having 20 or more is denoted as AA) | A (a compound having 10 or more and less than 20 is denoted as A) | 0.0114 µM |
| CCC[C@H]1C(=O)N[C@@H](C2CCOCC2)C(=O)N(C)CC(=O)N(C)[C@H]2C/C=C\CCN(C2=O)[C@@H](Cc2ccc(C(F)(F)F)cc2)C(=O)N(C)CC(=O)N[C@@H](CCc2ccc(C(F)(F)F)c(Cl)c2)C(=O)N2C[C@H](OCC)C[C@H]2C(=O)NC2(CC(C)(C)C2)C(=O)N(C)[C@@H](C2CCCC2)C(=O)N(C)[C@H](C(=O)N(C)C)CC(=O)N1C [PP3000] | AA (a compound having 20 or more is denoted as AA) | A (a compound having 10 or more and less than 20 is denoted as A) | 0.063 µM |
| CCC[C@H]1C(=O)N[C@@H]([C@@H](C)CC)C(=O)N(C)CC(=O)N(C)[C@H]2C/C=C\CCN(C2=O)[C@@H](Cc2ccc(C)cc2)C(=O)N(C)CC(=O)N[C@@H](CCc2cc(F)c(C(F)(F)F)c(F)c2)C(=O)N2CC3(CC3)C[C@H]2C(=O)NC2(CC(C)(C)C2)C(=O)N(C)[C@@H](CC(F)(F)F)C(=O)N(C)[C@H](C(=O)N(C)C)CC(=O)N1C [PP3003] | AA (a compound having 20 or more is denoted as AA) | A (a compound having 10 or more and less than 20 is denoted as A) | 0.0312 µM |
